Experimental data taken from article PMC2248166, “Quantitative peptide binding motifs for 19 human and mouse MHC class I molecules derived using positional scanning combinatorial peptide libraries” (Immunome Research, 2008).

Molecular target: HLA A*3001 (Homo sapiens, UniProt P04439, D140H/D185E/E176W/F33S/G80R/H175R/K168Q/R138E/R41S)
Assay: biochemical
Assay type: binding
Settings: not given

Sequence | Normalized average relative binding affinity (ARB), HLA A*3001
XQXXXXXXX [3064.0034] | 0.33
XRXXXXXXX [3064.0035] | 0.048
XSXXXXXXX [3064.0036] | 0.38
XTXXXXXXX [3064.0037] | 0.77

Molecular target: HLA A*3201 (Homo sapiens, UniProt P04439, A270S/D101S/D185E/E176V/E277Q/F133L/G103R/G107R/G231S/H175R/I121M/I218V/I322F/K168Q/L105A/L300P/L318F/M331R/P208A/P217A/Q94H/R106L/R138Q/S129P/T104I/T323A/T345S/V100E/V321M/V358M)
Assay: biochemical
Assay type: binding
Settings: not given

Sequence | Normalized average relative binding affinity (ARB), HLA A*3201
XQXXXXXXX [3064.0034] | 0.32
XRXXXXXXX [3064.0035] | 0.0090
XSXXXXXXX [3064.0036] | 0.21
XTXXXXXXX [3064.0037] | 1.0

Molecular target: HLA A*6802 (Homo sapiens, UniProt P04439, A269V/D140Y/D185E/E176V/E277Q/E87N/F33Y/G231S/I121R/I166T/I218V/L180W/L300P/L318F/N151K/P208A/P217A/Q86R/R138H/R169H/S129P/T345S/V36M)
Assay: not given
Assay type: binding
Settings: not given

Sequence | Normalized average relative binding affinity (ARB), HLA A*6802
XQXXXXXXX [3064.0034] | 0.0081
XRXXXXXXX [3064.0035] | 0.0069
XSXXXXXXX [3064.0036] | 0.27
XTXXXXXXX [3064.0037] | 0.63

Molecular target: HLA B*0702 (Homo sapiens, UniProt P01889)
Assay: not given
Assay type: binding
Settings: positional scanning combinatorial 9-mer library; normalized to 1.0 for the best residue at each position

Sequence | Normalized average relative binding affinity (ARB), HLA B*0702
XQXXXXXXX [3064.0034] | 0.011
XRXXXXXXX [3064.0035] | 0.0078
XSXXXXXXX [3064.0036] | 0.0043
XTXXXXXXX [3064.0037] | 0.014

Molecular target: HLA B*0801 (Homo sapiens, UniProt P01889, A93T/A95T/D138N/E176V/E187T/K202T/Q94N/R180D/S35A/V36M/Y33D/Y91F)
Assay: biochemical
Assay type: binding
Settings: not given

Sequence | Normalized average relative binding affinity (ARB), HLA B*0801
XQXXXXXXX [3064.0034] | 0.13
XRXXXXXXX [3064.0035] | 0.30
XSXXXXXXX [3064.0036] | 0.13
XTXXXXXXX [3064.0037] | 0.038

Molecular target: HLA B*1501 (Homo sapiens, UniProt P01889, A329T/A93T/A95T/C349S/D201E/D98Y/E187L/E204Q/E69M/E70A/K202T/N87E/Q94N/R155S/R180W/S121R/S35A/S48A/V306I/V36M/Y140S/Y91S)
Assay: biochemical
Assay type: binding
Settings: not given

Sequence | Normalized average relative binding affinity (ARB), HLA B*1501
XQXXXXXXX [3064.0034] | 1.0
XRXXXXXXX [3064.0035] | 0.024
XSXXXXXXX [3064.0036] | 0.59
XTXXXXXXX [3064.0037] | 0.29

Molecular target: HLA B*1503 (Homo sapiens, UniProt P01889, A329T/A93T/A95T/C349S/D201E/D98Y/E187L/E204Q/K202T/N87E/Q94N/R155S/R180L/S121R/S35A/V306I/V36M/Y140S/Y91S)
Assay: biochemical
Assay type: binding
Settings: not given

Sequence | Normalized average relative binding affinity (ARB), HLA B*1503
XQXXXXXXX [3064.0034] | 1.0
XRXXXXXXX [3064.0035] | 0.059
XSXXXXXXX [3064.0036] | 0.13
XTXXXXXXX [3064.0037] | 0.026

Molecular target: HLA B*2705 (Homo sapiens, UniProt P01889, D138H/D201E/E176V/E204Q/G107R/H137Y/K202T/N104T/N87E/Q56L/Q94K/R106L/R155S/R180L/S101D/S121N/S48T/Y140D/Y33H/Y91C)
Assay: not given
Assay type: binding
Settings: positional scanning combinatorial 9-mer library; normalized to 1.0 for the best residue at each position

Sequence | Normalized average relative binding affinity (ARB), HLA B*2705
XQXXXXXXX [3064.0034] | 0.016
XRXXXXXXX [3064.0035] | 1.0
XSXXXXXXX [3064.0036] | 0.012
XTXXXXXXX [3064.0037] | 0.0033

Molecular target: HLA B*3501 (Homo sapiens, UniProt P01889, A329T/A93T/A95T/C349S/D201E/D98Y/E176V/E187L/E204Q/E69T/I218V/K202T/L119I/Q94N/R155S/R180L/S121R/S35A/S48A/T118I/V127L/V306I/V36M/Y140S/Y91F)
Assay: not given
Assay type: binding
Settings: not given

Sequence | Normalized average relative binding affinity (ARB), HLA B*3501
XQXXXXXXX [3064.0034] | 0.039
XRXXXXXXX [3064.0035] | 0.068
XSXXXXXXX [3064.0036] | 0.059
XTXXXXXXX [3064.0037] | 0.042

Molecular target: HLA B*5101 (Homo sapiens, UniProt P01889, A329T/A93T/A95T/C349S/D138N/D201E/D98Y/E187L/E204Q/E69T/G107R/I218V/K202T/L105A/L119W/N104I/Q94N/R106L/R155S/R180L/S101N/S121T/S35A/S48A/V306I/V36M/Y195H/Y91F)
Assay: not given
Assay type: binding
Settings: not given

Sequence | Normalized average relative binding affinity (ARB), HLA B*5101
XQXXXXXXX [3064.0034] | 0.11
XRXXXXXXX [3064.0035] | 0.022
XSXXXXXXX [3064.0036] | 0.10
XTXXXXXXX [3064.0037] | 0.042

Molecular target: HLA B*5301 (Homo sapiens, UniProt P01889, A329T/A93T/A95T/C349S/D201E/D98Y/E176V/E187L/E204Q/E69T/G107R/I218V/K202T/L105A/L119I/N104I/Q94N/R106L/R155S/R180L/S101N/S121R/S35A/S48A/T118I/V127L/V306I/V36M/Y140S/Y91F)
Assay: not given
Assay type: binding
Settings: not given

Sequence | Normalized average relative binding affinity (ARB), HLA B*5301
XQXXXXXXX [3064.0034] | 0.047
XRXXXXXXX [3064.0035] | 0.0045
XSXXXXXXX [3064.0036] | 0.031
XTXXXXXXX [3064.0037] | 0.022

Molecular target: HLA B*5401 (Homo sapiens, UniProt P01889, A329T/C349S/D138N/D201E/E176V/E187T/E204Q/E69G/I76V/K202T/L119W/R155S/R180L/S121T/S35A/S48A/V127L/V306I/V36M/Y140L)
Assay: not given
Assay type: binding
Settings: not given

Sequence | Normalized average relative binding affinity (ARB), HLA B*5401
XQXXXXXXX [3064.0034] | 0.0034
XRXXXXXXX [3064.0035] | 0.0042
XSXXXXXXX [3064.0036] | 0.050
XTXXXXXXX [3064.0037] | 0.028

Molecular target: HLA B*5801 (Homo sapiens, UniProt P01889, A329T/C349S/D201E/D98Y/E176V/E187L/E204Q/E69T/G107R/I218V/I90N/K202T/L105A/L119I/N104I/N87E/Q89R/Q94S/R106L/R155S/R180L/R86G/S101N/S121R/S35A/S48A/T118I/V127L/V306I/V36M/Y140S/Y91M)
Assay: not given
Assay type: binding
Settings: not given

Sequence | Normalized average relative binding affinity (ARB), HLA B*5801
XQXXXXXXX [3064.0034] | 0.024
XRXXXXXXX [3064.0035] | 0.017
XSXXXXXXX [3064.0036] | 1.0
XTXXXXXXX [3064.0037] | 0.71

Molecular target: HLA B*5802 (Homo sapiens, UniProt P01889, A329T/C349S/D201E/D98Y/E176V/E187L/E204Q/E69T/G107R/I218V/I90N/K202T/L105A/N104I/N87E/Q89R/Q94S/R106L/R155S/R180L/R86G/S101N/S121W/S35A/S48A/V127L/V306I/V36M/Y140S/Y91M)
Assay: not given
Assay type: binding
Settings: not given

Sequence | Normalized average relative binding affinity (ARB), HLA B*5802
XQXXXXXXX [3064.0034] | 0.21
XRXXXXXXX [3064.0035] | 0.030
XSXXXXXXX [3064.0036] | 1.0
XTXXXXXXX [3064.0037] | 0.79

Molecular target: H-2 D^b (Mus musculus, UniProt P01899)
Sequence (P01887 21-119): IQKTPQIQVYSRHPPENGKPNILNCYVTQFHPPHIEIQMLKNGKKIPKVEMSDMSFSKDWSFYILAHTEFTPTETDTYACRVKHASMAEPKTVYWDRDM
Sequence (P01899 25-362): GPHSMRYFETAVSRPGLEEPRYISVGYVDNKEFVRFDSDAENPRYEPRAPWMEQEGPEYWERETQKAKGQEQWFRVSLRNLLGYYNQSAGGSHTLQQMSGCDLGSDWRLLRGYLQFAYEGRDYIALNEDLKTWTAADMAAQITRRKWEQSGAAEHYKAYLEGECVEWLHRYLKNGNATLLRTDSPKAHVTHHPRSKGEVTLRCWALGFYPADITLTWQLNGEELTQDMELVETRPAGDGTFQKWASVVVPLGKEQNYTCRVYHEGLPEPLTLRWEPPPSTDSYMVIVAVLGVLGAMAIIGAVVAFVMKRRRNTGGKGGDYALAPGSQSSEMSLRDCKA
Assay: not given
Assay type: binding
Settings: not given

Sequence | Normalized average relative binding affinity (ARB), H-2 Db
XQXXXXXXX [3064.0034] | 1.0
XRXXXXXXX [3064.0035] | 0.036
XSXXXXXXX [3064.0036] | 0.80
XTXXXXXXX [3064.0037] | 0.22

Molecular target: H-2 D^d (Mus musculus, UniProt P01900)
Sequence (P01900 whole entry, looked up): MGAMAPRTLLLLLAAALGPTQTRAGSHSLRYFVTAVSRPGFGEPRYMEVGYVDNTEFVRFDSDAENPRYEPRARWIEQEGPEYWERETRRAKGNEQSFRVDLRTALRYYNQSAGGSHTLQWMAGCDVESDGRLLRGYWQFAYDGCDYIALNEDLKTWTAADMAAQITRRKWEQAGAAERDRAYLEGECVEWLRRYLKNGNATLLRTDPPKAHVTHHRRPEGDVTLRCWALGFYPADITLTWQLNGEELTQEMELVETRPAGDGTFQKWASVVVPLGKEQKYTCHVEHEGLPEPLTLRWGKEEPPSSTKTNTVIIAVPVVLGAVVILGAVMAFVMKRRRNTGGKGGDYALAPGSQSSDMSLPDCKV
Assay: not given
Assay type: binding
Settings: not given

Sequence | Normalized average relative binding affinity (ARB), H-2 Dd
XQXXXXXXX [3064.0034] | 0.015
XRXXXXXXX [3064.0035] | 0.028
XSXXXXXXX [3064.0036] | 0.022
XTXXXXXXX [3064.0037] | 0.019

Molecular target: H-2 K^k (Mus musculus, UniProt P04223)
Sequence (P01887 21-119): as the sequence (P01887 21-119) above
Sequence (P04223 22-369): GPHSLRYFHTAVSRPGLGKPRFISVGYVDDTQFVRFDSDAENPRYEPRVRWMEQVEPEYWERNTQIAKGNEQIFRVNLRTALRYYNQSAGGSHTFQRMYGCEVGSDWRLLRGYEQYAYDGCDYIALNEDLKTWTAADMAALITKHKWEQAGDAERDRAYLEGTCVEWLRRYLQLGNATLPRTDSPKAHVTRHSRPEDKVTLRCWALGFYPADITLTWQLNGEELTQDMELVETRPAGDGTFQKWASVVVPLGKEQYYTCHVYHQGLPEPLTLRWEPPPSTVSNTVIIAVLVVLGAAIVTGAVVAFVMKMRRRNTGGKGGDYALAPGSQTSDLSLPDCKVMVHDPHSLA
Assay: not given
Assay type: binding
Settings: not given

Sequence | Normalized average relative binding affinity (ARB), H-2 Kk
XQXXXXXXX [3064.0034] | 0.053
XRXXXXXXX [3064.0035] | 0.0071
XSXXXXXXX [3064.0036] | 0.014
XTXXXXXXX [3064.0037] | 0.0085

Molecular target: HLA A*0201 (Homo sapiens, UniProt P04439, D140Y/D185E/D98H/E176V/E277Q/G131W/G231S/I119V/I121R/I166T/I218V/L300P/L318F/N151K/N90K/P208A/P217A/Q86G/Q94H/R138H/R169H/T345S)
Assay: not given
Settings: positional scanning combinatorial 9-mer library; normalized to 1.0 for the best residue at each position

Sequence | Normalized average relative binding affinity (ARB), HLA A*0201
XQXXXXXXX [3064.0034] | 0.14
XRXXXXXXX [3064.0035] | 0.0016
XSXXXXXXX [3064.0036] | 0.0092
XTXXXXXXX [3064.0037] | 0.038
